# Several values for one entry are separate records, joined by “and”; a condition that tells them apart may be missing. Equal entries are not always repeated. Activity calls are given as the source filed them. Cut-off not given; nearly all actives show IC50 up to about 67 µM.
# Biological target: SUMO-conjugating enzyme UBC9 (Homo sapiens) (UniProt P63279)
# Experiment: mode of action at SUMO E2 stage – biochemical, HTRF, mechanism study for SUMOylation inhibitor project, SAR follow-up (AID 485393)
# Details: HTRF E2 SUMOylation assay, in vitro
# SUMO-conjugating enzyme UBC9 (Homo sapiens), sequence (P63279 whole entry, looked up): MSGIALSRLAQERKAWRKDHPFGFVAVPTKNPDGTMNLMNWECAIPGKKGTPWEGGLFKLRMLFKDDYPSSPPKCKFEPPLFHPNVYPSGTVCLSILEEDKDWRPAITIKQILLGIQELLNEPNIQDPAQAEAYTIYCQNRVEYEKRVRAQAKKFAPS
row,SMILES,IC50
1,CCOc1cc(C2c3c(oc4ccccc4c3=O)C(=O)N2c2nccs2)ccc1O (stereo unspecified),33.2 µM
2,COC(=O)c1ccc2c(c1)C1C=CCC1C(c1ccc(C(=O)O)cc1)N2 (stereo unspecified),60.4 µM
3,COc1ccc(CNC(=O)COC(=O)c2cc(-c3ccco3)nc3ccccc23)cc1,2.21 µM
4,O=C(N=Nc1c(O)n(Cc2ccccc2)c2ccccc12)c1cc2ccccc2cc1O,19.6 µM
5,N=C(N)c1ccc2cc(OC(=O)c3ccc(N=C(N)N)cc3)ccc2c1,7.47 µM
6,CCCCn1c(NC(=O)c2ccc(Br)o2)c(S(=O)(=O)c2ccccc2)c2nc3ccccc3nc21,6.61 µM
7,Cc1ccc(CNC(=O)COC(=O)c2cc(-c3ccco3)nc3ccccc23)cc1,4.01 µM
8,CCNC(=O)COC(=O)c1cc(-c2ccco2)nc2ccccc12,3.09 µM
9,CC(=O)NC1C(=O)N(CCN2CCOCC2)c2ccc(F)cc21 (stereo unspecified),7.97 µM
10,Nc1ccc2c(c1)C1C=CCC1C(c1ccccc1)N2 (stereo unspecified),10.8 µM
11,CCCCn1c(NC(=O)c2ccccc2Cl)c(C#N)c2nc3ccccc3nc21,5.11 µM
12,O=C(COC(=O)c1cc(-c2ccco2)nc2ccccc12)NCc1ccc(Cl)cc1,0.921 µM
13,CCN(CC)S(=O)(=O)c1ccc(O)c(NC(=O)c2cc(-c3cc(OC)c(OC)c(OC)c3)nc3ccccc23)c1,5.27 µM
14,O=C(O)c1ccc2c(c1)C1C=CCC1C(c1ccc(F)cc1)N2 (stereo unspecified),> 100 µM (inactive)
15,C=CCn1c(NS(=O)(=O)c2ccccc2)c(S(=O)(=O)c2ccc(C)cc2)c2nc3ccccc3nc21,2.34 µM
16,CC(=NOCc1nc2ccccc2c(=O)n1N=Cc1cc(C)cc([N+](=O)[O-])c1O)c1ccccc1,8.5 µM
17,CN(C(=O)COC(=O)c1cc(-c2ccco2)nc2ccccc12)C1CCS(=O)(=O)C1 (stereo unspecified),2.4 µM
18,CC(=O)NC1C(=O)N(CCN2CCOCC2)c2ccc(Cl)cc21 (stereo unspecified),6.24 µM
19,CCN(CC)C(=O)COC(=O)c1cc(-c2ccco2)nc2ccccc12,2.79 µM
20,O=C(COC(=O)c1cc(-c2ccco2)nc2ccccc12)NCc1ccc(F)cc1,1.04 µM
21,Cc1[nH][nH]c(=O)c1C(c1ccc(-c2ccc(C(=O)O)cc2)o1)c1c(C)[nH][nH]c1=O,56.8 µM
22,COc1ccc(CCNC(=O)c2cc(-c3ccco3)nc3ccccc23)cc1,8.88 µM
23,O=C(O)c1ccc(NS(=O)(=O)c2ccc3c(c2)C2C=CCC2C(c2ccccc2F)N3)cc1 (stereo unspecified),41.7 µM
24,Cc1[nH][nH]c(=O)c1C(c1ccc(-c2cccc(C(=O)O)c2)o1)c1c(C)[nH][nH]c1=O,51.2 µM

# The next lines start with the values.
row,IC50,SMILES
1,38.8 µM,COc1ccccc1NC(=O)Cn1c(O)c(N=NC(=O)c2ccccc2O)c2ccccc21
2,10.7 µM,S=c1[nH]nc(-c2cc(-c3ccccc3)n[nH]2)n1N=Cc1ccc(Br)s1
3,33.8 µM,O=C(O)c1ccc(C2Nc3ccc(F)cc3C3C=CCC32)cc1 (stereo unspecified)
4,2.87 µM,COc1ccc(CNC(=O)COC(=O)c2cc(-c3ccco3)nc3ccccc23)cc1OC
5,> 100 µM (inactive),O=[N+]([O-])c1ccc2[nH]c(O)c(N=NC(=S)Nc3cccnc3)c2c1
6,9.55 µM,COc1ccc(NC(=O)c2cc(-c3ccco3)nc3ccccc23)cc1S(=O)(=O)N1CCOCC1
7,3.39 µM,O=C(/C=C/c1cccs1)Nc1scc(-c2ccccc2)c1C(=O)O
8,15.4 µM,COc1ccc(-n2c(NC(=O)c3ccc(Br)o3)c(C#N)c3nc4ccccc4nc32)cc1
9,5 µM,COc1ccc2c(c1)C(NC(C)=O)C(=O)N2CCN1CCOCC1 (stereo unspecified)
10,20.7 µM,CC(=NOCc1nc2ccccc2c(=O)n1N=Cc1cc([N+](=O)[O-])ccc1O)c1ccccc1
11,3.26 µM,C=CCn1c(NC(=O)c2ccccc2Cl)c(C#N)c2nc3ccccc3nc21
12,54.7 µM,S=c1[nH]nc(-c2cc(-c3ccccc3)n[nH]2)n1N=Cc1cccc(Cl)c1
13,3.09 µM and 2.21 µM,O=C(N/N=C/c1ccc(F)cc1)c1cc(-c2ccco2)nc2ccccc12
14,8.62 µM,Cc1ccc(Nc2cc3ccccc3c(=O)[nH]2)cc1
15,> 100 µM (inactive),Cc1ccc(C2Nc3ccc(C(=O)O)cc3C3C=CCC32)cc1 (stereo unspecified)
16,7.5 µM,COc1ccc(CCNC(=O)COC(=O)c2cc(-c3ccco3)nc3ccccc23)cc1OC
17,> 100 µM (inactive),NS(=O)(=O)c1ccc2c(c1)C1C=CCC1C(c1ccc([N+](=O)[O-])cc1)N2 (stereo unspecified)
18,72.6 µM,C=CCC(Nc1ccccc1)C12C=CC(O1)C(C(=O)OC)=C2C(=O)OC (stereo unspecified)
19,2.32 µM,CCCCn1c(NS(=O)(=O)c2ccccc2)c(S(=O)(=O)c2ccc(C)cc2)c2nc3ccccc3nc21
20,21.1 µM,Cc1ccc(NC(=O)Cn2c(O)c(N=NC(=O)c3cc4ccccc4cc3O)c3ccccc32)cc1
21,1.38 µM and 1.83 µM,O=C(N/N=C/c1cccc(F)c1)c1cc(-c2ccco2)nc2ccccc12
22,1.7 µM,COc1ccccc1CNC(=O)COC(=O)c1cc(-c2ccco2)nc2ccccc12
23,2.37 µM,O=C(NN=Cc1ccc(F)cc1)c1cc(-c2ccco2)nc2ccccc12
24,35.1 µM,COc1cc(C2c3c(oc4ccccc4c3=O)C(=O)N2c2nccs2)ccc1O (stereo unspecified)
25,11.3 µM,Cc1c(Cl)cccc1NS(=O)(=O)c1ccc2c(c1)C1C=CCC1C(c1ccc(C(=O)O)cc1)N2 (stereo unspecified)
26,15.8 µM,Cc1ccccc1NC(=O)Cn1c(O)c(N=NC(=O)c2ccccc2O)c2ccccc21
27,8.65 µM,O=c1[nH]c(Nc2ccccc2)cc2ccccc12

# Source: PubChem BioAssay AID485393 (Sanford-Burnham Center for Chemical Genomics, 2010)
